Test results taken from patent publication US12357701B2, “Anti-HER2 biparatopic antibody-drug conjugates and methods of use” (Zymeworks BC Inc., priority 2018, dated 2025).

Columns and labels:
Assay type in all cases: in vivo, cynomolgus monkeys
[1] = Non-GLP repeat-dose toxicity study of v21252; conditions: after repeat administration of v21252 9 or 12 mg/kg; all below limit of quantitation except three animals
Protocol: (§1) All animals were evaluated for changes in clinical signs, food consumption, body weight, blood pressure, ECGs, respiration rates (visual), clinical pathology (hematology, clinical chemistry, coagulation, urinalysis), organ weights, and macroscopic/microscopic examination of tissues.

[2] = GLP toxicity study of v21252
Protocol: as §1

[3] = Single-dose pharmacokinetics/tolerability study of v17597 and v21252; conditions: all below LLOQ
Protocol: General tolerability was assessed with clinical observations, body weight, food consumption, and clinical pathology (hematology and clinical chemistry).
Serum concentrations of total antibody were analyzed using an Electrochemiluminescence assay with Meso Scale Discovery platform (ECL/MSD) with anti-pertuzumab antibody as the capture agent and anti-trastuzumab sulfo-TAG as the detection agent.
Serum samples were precipitated with acetonitrile/methanol (50:50, v/v) and supernatants were analyzed. The liquid chromatography system used was a reverse phase column with a gradient flow consisting of water/acetic acid (100/0.05, v/v) and acetonitrile.
Non-compartmental analysis of the serum sample bioanalytical results was used to derive PK parameters (maximum serum concentration [Cmax], terminal half-life [T1/2], clearance [CL] and apparent volume of distribution [Vss]).

CCC(C)[C@@H]([C@@H](CC(=O)N1CCC[C@H]1[C@H](OC)[C@@H](C)C(=O)NS(=O)(=O)c1ccc(N)cc1)OC)N(C)C(=O)[C@@H](NC(=O)[C@H](C(C)C)N(C)C)C(C)C (stereo in doubt) [Compound 9, (S)—N-((3R,4S,5R)-1-((S)-2-((1R,2R)-3-((4-aminophenyl)sulfonamido)-1-methoxy-2-methyl-3-oxopropyl)pyrrolidin-1-yl)-3-methoxy-5-methyl-1-oxoheptan-4-yl)-2-((S)-2-(dimethylamino)-3-methylbutanamido)-N,3-dimethylbutanamide]
payload (Compound 9) serum concentration [1]: < 0.500 ng/mL | toxin (Compound 9) serum concentration ([2]; after repeat administrations of v21252, most concentrations below limit of quantitation): < 0.500 ng/mL | AUC(0-t) ([2]; male, cynomolgus monkey, serum, iv, 18 mg/kg): 125 ng·h/mL | toxin (Compound 9) serum concentration ([3]; after single dose of v17597 (3, 6 or 9 mg/kg)): < 5.00 ng/mL | toxin (Compound 9) serum concentration ([3]; after single dose of v21252 (9 or 12 mg/kg)): < 5.00 ng/mL
